Data from patent publication US6716873B1, “Tocopherol ester compounds” (Yasoo Health Inc., priority 2003, dated 2004).

Assays:
MCF-7 cells [1] = test: Cell viability assay, crystal violet staining (OD620 of cell lysates); details: for OD620 of the cell lysates (crystal violet) / statistical significance of decrease in cell growth / effect on cell growth compared to control (FIG. 1): MCF-7; for OD620 of the cell lysates (crystal violet): equimolar concentrations corresponding to 10 μg/mL of VES; for statistical significance of decrease in cell growth: Day 7, day of maximal proliferation rate; for effect on cell growth compared to control (FIG. 1): equimolar concentrations
Procedure: (§1) Experimental media. […] Stock solutions were maintained at 4° C.
Cells were plated in triplicate in 96-well plates and allowed to attaach and reach confluence for 48 hours. On Day 2 test compounds were added at equimolar concentrations corresponding to 10 μg/mL of VES. Cell viability was determined at the specified times by staining with crystal violet and measuring the OD620 of the cell lysates.

MCF-7 cells [2] = test: Cell growth/viability assay with tetrazolium salt WST-8 (OD 450 nm); details: for inhibitory effect on cell viability (FIG. 2), in words: equimolar concentrations, incubation up to 10 days
Procedure: as §1
Equimolar concentrations of the different compounds were added on day 2 and allowed for incubation for the indicated time period.

[3] = Stability in the culture media by TLC
MDA-MB-231 cells = test: Cell growth/viability assay with tetrazolium salt WST-8 (OD 450 nm); details: MDA-MB-231 (ER-negative); after 6 days of incubation
Procedure: Cultures of MDA-MB-231 cells were maintained at 37° C. in minimum essential medium containing 3.7 g of NaHCO3 per liter of water, supplemented with 10% (v/v) Fetal Bovine Serum and 1% Penicillin/Streptomycin (broad spectrum antibiotics). […] The media were equilibrated with a humidified atmosphere of 5% CO2. Stock cultures were seeded at a density of 200×10^3 cells/mL and allowed to multiply to confluence. The cells were grown at 37° C. in a humidified atmosphere containing 5% CO2 and passaged when confluent using 0.25% trypsin.
The same amount of ethanol was added to the control samples. Stock solutions were maintained at 4° C.
Cell viability assays. The first method employs a novel tetrazolium salt, WST-8 [2-methoxy-4-nitrophenyl)-3(4-nitrophenyl)-5-(2,4-disulphophenyl)-2-H-tetrazolium, monosodium salt] which produces a highly water-soluble formazan dye generated by dehydrogenases which are active in living cells in a culture medium. For initial growth assays, cell suspensions (5000 cells/100 μL/well) were dispensed onto 96-well microtiter plates and incubated at 37° C., 5% CO2 for 1-12 days. At distinct time intervals 10 μL of the WST-8 solution was added to each well and allowed to incubate for 2-4 hrs. A yellow formazan dye is developed only in living cells. […] The absorbance at 450 nm was measured using a microplate reader (EMS Reader with dispenser, Genesys Software) with a reference wavelength at 600 nm. […] For both methods, cell suspensions (5000 cells/100 μ□L culture media) were initially inoculated on a 96-well microplate and preincubated in an incubator for 48 hrs to allow attachment 10 μL of the stock solution of each compound was added so that the final concentration was equimolar for each compound corresponding to 10 µg/mL of VES.
Comparison of the effect of the different compounds on absorbance at the appropriate wavelength was made by analysis of variance (ANOVA).
Cells were seeded in triplicate in 96-well plates and incubated for 48 hrs to allow attachment. The different compounds were added at the indicated concentrations and allowed to incubate for an additional 4 days. The indicated incubation time previously was determined in a growth assay ats the time of maximal proliferation rate. Tetrazolium salt WST-8 (10 μL) was added to each well, the cells were allowed to incubate for 2 hours and optical density (OD) measurements of the yellow formazan dye were made at 450 nm.

[4] = Chemical stability (solid state, organic solvent, aqueous base by 1H NMR); type: physicochemical; details: pH=9, room temperature, one day
[5] = Day 0, equimolar concentrations, added on day 2
[6] = Day 2, equimolar concentrations
[7] = Day 4, equimolar concentrations
[8] = Day 7, equimolar concentrations
[9] = Day 9, equimolar concentrations
[10] = Day 11, equimolar concentrations

Cc1c(C)c2c(c(C)c1OC(=O)C(CC(=O)O)[Se]c1ccccc1)CC[C@@](C)(CCC[C@H](C)CCC[C@H](C)CCCC(C)C)O2 (stereo partly drawn) [PSSA-α-Toc, 2-phenylselanyl-succinic acid RRR-α-tocopherol ester]
OD620 of the cell lysates (crystal violet) (MCF-7 cells [1]; Day 0, added on Day 2): 0 | OD620 of the cell lysates (crystal violet) (MCF-7 cells [1]; Day 2): 0.325 | OD620 of the cell lysates (crystal violet) (MCF-7 cells [1]; Day 5): 0.9504 | statistical significance of decrease in cell growth (MCF-7 cells [1]): statistically significant decrease in cell growth | OD620 of the cell lysates (crystal violet) (MCF-7 cells [1]; Day 7): 1.227 | OD620 of the cell lysates (crystal violet) (MCF-7 cells [1]; Day 9): 1.162 | effect on cell growth compared to control (FIG. 1) (MCF-7 cells [1]): inhibited cell growth much more effectively | optical density (OD) of formazan dye at 450 nm (WST-8) (MCF-7 cells [2]; [5]): 0 | optical density (OD) of formazan dye at 450 nm (WST-8) (MCF-7 cells [2]; [6]): 0.7806 | optical density (OD) of formazan dye at 450 nm (WST-8) (MCF-7 cells [2]; [7]): 1.4215 | optical density (OD) of formazan dye at 450 nm (WST-8) (MCF-7 cells [2]; [8]): 2.998 | optical density (OD) of formazan dye at 450 nm (WST-8) (MCF-7 cells [2]; [9]): 2.812 | optical density (OD) of formazan dye at 450 nm (WST-8) (MCF-7 cells [2]; [10]): 2.105 | cytotoxicity, in words (MCF-7 cells [2]; concentration equivalent to IC50): not cytotoxic | inhibitory effect on cell viability (FIG. 2), in words (MCF-7 cells [2]): most potent inhibitory effect throughout the culture period | stability in the culture media (TLC) [3]: stable for more than one weak | inhibition of cell growth (MDA-MB-231 cells): 65%

O=[Se](=O)([O-])[O-].[Na+].[Na+] [Na Selenate, sodium selenate, reference compound]
cytotoxic effect on MCF-7 cells (MCF-7 cells [1]; 3.26 μg/mL (equimolar to 10 μg/mL of VES)): 100% | OD620 of the cell lysates (crystal violet) (MCF-7 cells [1]; Day 0, added on Day 2): 0 | OD620 of the cell lysates (crystal violet) (MCF-7 cells [1]; Day 2): 0.07344 | OD620 of the cell lysates (crystal violet) (MCF-7 cells [1]; Day 5): 0.06117 | statistical significance of decrease in cell growth (MCF-7 cells [1]): statistically significant decrease in cell growth | OD620 of the cell lysates (crystal violet) (MCF-7 cells [1]; Day 7): 0.082 | OD620 of the cell lysates (crystal violet) (MCF-7 cells [1]; Day 9): 0.05411

Cc1c(C)c2c(c(C)c1OC(=O)CCC(=O)O)CC[C@@](C)(CCC[C@H](C)CCC[C@H](C)CCCC(C)C)O2 [VES, RRR-α-tocopheryl succinate, reference compound]
optical density (OD) of formazan dye at 450 nm (WST-8) (MCF-7 cells [2]; [5]): 0 | optical density (OD) of formazan dye at 450 nm (WST-8) (MCF-7 cells [2]; [6]): 0.8005 | optical density (OD) of formazan dye at 450 nm (WST-8) (MCF-7 cells [2]; [7]): 1.439 | optical density (OD) of formazan dye at 450 nm (WST-8) (MCF-7 cells [2]; [8]): 3.311 | optical density (OD) of formazan dye at 450 nm (WST-8) (MCF-7 cells [2]; [9]): 3.427 | optical density (OD) of formazan dye at 450 nm (WST-8) (MCF-7 cells [2]; [10]): 2.99 | inhibitory effect on cell viability (FIG. 2), in words (MCF-7 cells [2]): inhibited cell growth more effectively during the first 7 days of incubation | inhibition of cell growth (MDA-MB-231 cells): 44%

O=c1[nH]cc(F)c(=O)[nH]1 [5-FU, 5-fluorouracil, reference compound]
inhibition of cell growth (MDA-MB-231 cells): 31%

O=C(O)CC([Se]c1ccccc1)C(=O)O (stereo not shown) [PSSA, phenylselanyl-succinic acid]
OD620 of the cell lysates (crystal violet) (MCF-7 cells [1]; Day 0, added on Day 2): 0 | OD620 of the cell lysates (crystal violet) (MCF-7 cells [1]; Day 2): 0.3842 | OD620 of the cell lysates (crystal violet) (MCF-7 cells [1]; Day 5): 1.218 | OD620 of the cell lysates (crystal violet) (MCF-7 cells [1]; Day 7): 1.693 | OD620 of the cell lysates (crystal violet) (MCF-7 cells [1]; Day 9): 1.495 | effect on cell growth compared to control (FIG. 1) (MCF-7 cells [1]): no measurable effect compared to control | optical density (OD) of formazan dye at 450 nm (WST-8) (MCF-7 cells [2]; [5]): 0 | optical density (OD) of formazan dye at 450 nm (WST-8) (MCF-7 cells [2]; [6]): 0.9149 | optical density (OD) of formazan dye at 450 nm (WST-8) (MCF-7 cells [2]; [7]): 2.019 | optical density (OD) of formazan dye at 450 nm (WST-8) (MCF-7 cells [2]; [8]): 3.618 | optical density (OD) of formazan dye at 450 nm (WST-8) (MCF-7 cells [2]; [9]): 3.541 | optical density (OD) of formazan dye at 450 nm (WST-8) (MCF-7 cells [2]; [10]): 3.451 | inhibitory effect on cell viability (FIG. 2), in words (MCF-7 cells [2]): no inhibitory effect over the first 7 days of incubation | decomposition of aqueous solution (1H NMR) [4]: less than 5% | stability in the culture media (TLC) [3]: stable for more than one weak | inhibition of cell growth (MDA-MB-231 cells): 31%
